Values quoted from earlier work in patent publication US20040192598A1, “Composition and method of alleviating adverse side effects and/or enhancing efficacy of agents that inhibit aromatase” (priority 2000, published 2004).
Where two headings read alike, the source gives them in different places.

Key:
aromatase = target: T1, aromatase (Homo sapiens, UniProt P11511); details: treatment for breast cancer
T1 construct: host or cells: patients (in vivo, endogenous enzyme)
T1 sequence (P11511 1-503): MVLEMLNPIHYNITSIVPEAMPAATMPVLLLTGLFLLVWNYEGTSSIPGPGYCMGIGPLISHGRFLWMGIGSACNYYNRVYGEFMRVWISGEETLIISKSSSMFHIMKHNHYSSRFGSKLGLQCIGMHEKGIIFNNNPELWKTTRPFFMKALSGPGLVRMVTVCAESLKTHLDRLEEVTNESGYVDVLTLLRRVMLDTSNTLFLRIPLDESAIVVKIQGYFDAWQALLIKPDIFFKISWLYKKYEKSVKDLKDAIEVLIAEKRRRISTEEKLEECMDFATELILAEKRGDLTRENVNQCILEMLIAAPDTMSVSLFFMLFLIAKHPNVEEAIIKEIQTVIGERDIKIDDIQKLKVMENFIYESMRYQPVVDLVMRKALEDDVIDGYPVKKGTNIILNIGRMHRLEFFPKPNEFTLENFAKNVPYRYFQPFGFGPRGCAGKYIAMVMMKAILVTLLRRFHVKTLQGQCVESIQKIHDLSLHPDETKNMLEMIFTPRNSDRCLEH

Row | Compound | serum estrogen levels (aromatase) | further results
1 | N#Cc1ccc(C(c2ccc(C#N)cc2)n2cncn2)cc1 [Letrozole] | suppress serum estrogen levels to the limit of assay detection | 
2 | CC(C)(C#N)c1cc(Cn2cncn2)cc(C(C)(C)C#N)c1 [anastrozole] | suppress serum estrogen levels to the limit of assay detection | 
3 | C[C@@H]1[C@H](O)[C@@H](C)/C=C/C=C/CC/C=C/C=C/C=C/C=C/C(O[C@H]2O[C@H](C)[C@@H](O)[C@H](N)[C@@H]2O)CC2O[C@](O)(CC(O)C(O)CCC(O)CC(O)CC(O)CC(=O)O[C@H]1C)CC(O)C2C(=O)O (stereo partly shown) [nystatin] |  | relative risk for spontaneous abortion (first-trimester exposure, independent of drug therapy indication): not
4 | Clc1ccccc1C(c1ccccc1)(c1ccccc1)n1ccnc1 [clotrimazole] |  | relative risk for spontaneous abortion (in vivo): increased relative risk was also noted
